Assay results published in patent US6673814B2, “Delivery systems and methods for noscapine and noscapine derivatives, useful as anticancer agents” (Emory University, priority 1997, dated 2004).

Legend:
HL-60 cells = assay: Apoptosis of HL-60 cells, DAPI staining of nuclear chromatin; format: cell-based; settings: for Apoptic Cell Percentage: 24 hours
Procedure: Morphological changes in the nuclear chromatin of HL-60 cells undergoing apoptosis were detected by staining with 4′, 6-diamidino-2-phenylindole (DAPI). In brief, 0.5×10^6 to 3×10^6 cells were fixed with 4% glutaraledehyde, 0.2% Triton x-100, in PBS and incubated at room temperature for 10 min., then centrifuged at 1000×9 for 10 min., resuspended in 20 μ1 0.1% DAPI ethanol. Following 15 min. incubation at room temperature, at 10 μl aliquot was placed on a glass slide, and 400 cells per slide were scored for the incidence of apoptotic chromatin changes with a fluorescence microscope.

[1] = tested on: tumors derived from malignant melanoma cells; assay: Melanoma tumor progression in animals; format: in vivo
Hela cells = assay: M phase arrest, alpha-tubulin immunofluorescence and flow cytometry, Hela cells; format: cell-based; settings: 20 μM noscapine, 24 hr
Procedure: (§1) Hela cells were grown in DMEM supplemented with 10% fetal calf serum, 1 mM L-glutamine and 1% penicillin/streptomycin. The tumor cell line E-G7-OV A […] [Moore, M. W., et al., Cell. 54, 777 (1988)] was grown in RPM1 1640 with 10% fetal calf serum, 1% sodium pyruvate, 1 mM L-glutamine, 0.1% gentamycin, 50 μtM β-mercaptoethanol. Cells were grown at 37° C. in a 5% CO2 atmosphere. Cell viability was assessed by trypan blue exclusion analysis. Cell numbers were determined using a hemacytometer, C57BL/6 […] mice, 8 to 12 weeks of age, were obtained from Harian Sprague Dawley, Inc. (Indiananapolis, Ind.). Mice were maintained on standard laboratory chow and water ad libitum, in a temperature and light controlled environment. For immunofluorescence, both Hela and thymocyte cells were treated identically except the Hela cells were grown onto glass coverslips while EL4 thymocytes were put on glass coverslips after fixation. […]
(§2) Then cells were washed with 1% BSA-PBS solution for 10 min. at room temperature before incubating with a 1:200 dilution of a rhodamine labeled goat anti-mouse IgG antibody at room temperature for 45 min., then the coverslips were rinsed by 1% BSA/PBS solution for 10 min. and labeled by DAPI (4′, 6-diamino-2-phenyliudole) for another 10 min. at room temperature. […] Cells were examined with a fluorescence microscope. […] The samples were read on a cytometer.

thymocyte cells = assay: M phase arrest, alpha-tubulin immunofluorescence and flow cytometry, thymocyte cells; format: cell-based; settings: 20 μM noscapine, 24 hr
Procedure: as §1, §2

lymphocyte cells = assay: Apoptosis initiation: oligonucleosomal DNA fragmentation, DAPI staining, nick end labeling; format: cell-based; settings: noscapine treatment 0 to 24 hr
Procedure: Oligonucleosomal fragmentation of genomic DNA was determined according to Walton, M. I. et. al., Cancer. Res. 53, 1853 (1993). An aliquot of 3.3×10^6 cells in 10 ml medium was incubated with […] for different time periods ranging from 0 to 24 hr. At the end of incubation, cells were pelleted and washed twice with ice-cold PBS, and lysed in 250 μl 1% (v/v) NP-40 detergent containing 0.5 mg/ml proteinase K in PBS solution on ice for 60 min. Samples were centrifuged, and the supernatants were removed and incubated with 5 μl 10 mg/ml Rnase A at 37° C. for 40 min. An aliquot of 1 ml anhydrous ethanol was added, tubes were placed at −20° C. for 20 min., then centrifuged to pellet DNA. […]
Morphological changes in the nuclear chromatin of cells undergoing apoptosis were detected by staining with 4′, 6-diamidino-2-phenylindole (DAPI). […] Following 15 min. incubation at room temperature, a 10 μl aliquot was placed on a glass slide, and 400 cells per slide were scored for the incidence of apoptotic chromatin changes with a fluorescence microscope. […]
After the slides were rinsed with PBS, 50 μl converter-POD solution was added on samples and incubated for 30 min. at 37° C. […] After the slides were rinsed with PBS for another 3 times, coverslips were mounted and analyzed with a light microscope.

E.G7-OVA cells = assay: Inhibition of tumor growth, E.G7-OVA tumors in C57BL/6 mice; format: in vivo; settings: 3 mg noscapine every day for three weeks, intraperitoneally or intragastric; vs saline
Procedure: C57BL/6 mice were injected subcutaneously in the right flank with 2×10^6 E.G7-OVA cells. Three days later, mice were injected intraperitoneally, every day for three weeks, either with 200 μl saline (n=10), or with 3 mg noscapine dissolved in 200 μl saline (n=10),. Third group of mice (n=10) was fed 3 mg noscapine via intragastric (i.g.) intubation using a 1 ml syringe fitted with a 20 gauge stainless steel ball point needle. After three weeks, all mice were sacrificed by cervical dislocation. Tumors were removed and weighted. Tumor weights were individually plotted and comparisons between control and treatment groups were analyzed by the Student's test.

solid lymphoid tumors = assay: Apoptosis in solid lymphoid tumors induced in mice, Haemotoxline and Eosine staining; format: in vivo; settings: noscapine treated mice, microscopic examination
bovine brain tubulin [2] = assay: Tubulin binding by fluorescence titration, Scatchard plot
Procedure: (§3) Phosphocellulose purified bovine brain tubulin was employed throughout these biophysical experiments. Fluorescence titration for determining binding constants was performed according to Peyrot, V. et al., Biochemistry 31, 11125 (1992). In brief; at room temperature, 2 μM tubulin in 100 mM PIPES, 2 mM EGTA, 1 mM MgCl2 was excited at 278 nm, and the fluorescence emission spectra were recorded with bandwidths 2 nm. […] The concentration of noscapine was raised in increments of 0.5 μM, until the decrease in the fluorescence intensity was saturated. The value of the dissociation constant and the number of sites were obtained from Scatchard plots using the equation, […], where r is the ratio of the concentration of bound ligand to the total protein concentration and n is the number of binding sites. Circular dichroism (CD) spectra measurements were performed in a spectroscometer, in cells (0.1 cm path) at 25° C. Microtubule assembly was recorded on a spectrophotometer with thermocontroler. The cuvettes (0.4 cm path) containing 100 mM PIPES, 2 mM EGTA, 1 mM MgCl2 and 1 mM GTP (G-PEM buffer), and 20 μM noscapine/DMSO were kept at room temperature before addition of tubulin and shifting to 37° C. […] The assembly was monitored by measuring the changes in turbidity at 0.5 min. intervals. Noscapine was dissolved in DMSO at 0.8 mM and stocked at 4° C. […]

bovine brain tubulin [3] = assay: Microtubule assembly, turbidity at 350 nm; format: biochemical; settings: 20 μM noscapine, 37° C., G-PEM buffer
Procedure: as §3

Kd (bovine brain tubulin [2]; 2 μM tubulin, room temperature, Scatchard plot, read-out: apparent dissociation constant (Kd)) [nM]	Compound	initiation of apoptosis (HL-60 cells)	Apoptic Cell Percentage (HL-60 cells; 20 μM in DMSO, first trial) [%]	Apoptic Cell Percentage (HL-60 cells; 20 μM in DMSO, second trial) [%]	Apoptic Cell Percentage (HL-60 cells; 50 μM in DMSO) [%]	reduction of tumor volume compared to untreated animals [1] [%]	M phase arrest of microtubule arrays (Hela cells)	M phase arrest of microtubule arrays (thymocyte cells)	DNA degradation (gel electrophoresis of fragmented genomic DNA, staining of treated cells) (lymphocyte cells)	tumor weight (E.G7-OVA cells)	apoptotic morphologies of tumor cells (solid lymphoid tumors)	fluorescence quenching of tubulin (bovine brain tubulin [2]; excitation 278 nm)	tubulin assembly (absorbance at 350 nm) (bovine brain tubulin [3])
–	1,3-dihydro-4,5-dimethoxy-1-[1-(8-methoxy-2-methyl-6,7-methylenedioxy-1,2,3,4-tetrahydroisoquinolinyl)] isobenzofuran-BH3 [Compound 3]	initiate apoptosis	37	28	39	–	–	–	–	–	–	–	–
–	COc1ccc2c(c1OC)CO[C@@H]2[C@H]1c2c(cc3c(c2OC)OCO3)CCN1C [Compound 4, 1,3-diliydro-4,5-dimethoxy-1-[1-(8-methoxy-2-methyl-6,7-methylenedioxy 1,2,3,4-tetrahydroixoquinolinyl)]isobenzofuran]	initiate apoptosis	48	32	52	–	–	–	–	–	–	–	–
1860	COc1ccc2c(c1OC)C(=O)O[C@@H]2[C@H]1c2c(cc3c(c2OC)OCO3)CCN1C [Noscapine]	initiate apoptosis	30	17	27	~83	microtubule arrays are arrested in M phase	microtubule arrays are arrested in M phase	progressive DNA degradation with increasing time	significantly reduced tumor weight	many cells in noscapine treated mice with apoptotic morphologies	affords fluorescence quenching of tubulin	promotes tubulin assembly
